Results reported in ChEMBL document CHEMBL5154649, “Design, synthesis, and characterization of novel aminoalcohol quinolines with strong in vitro antimalarial activity” (Eur J Med Chem, 2022).

Tested on: not listed separately
Test: Cytotoxicity against human THP-1 cells assessed as reduction in cell viability incubated for 72 hrs by MTT assay
Format: toxicity, cell-based
Conditions: not given

Row | SMILES | IC50 at 72 h
1 | OC[C@@H](Cc1ccccc1)NC[C@@H](O)c1cc(C(F)(F)F)nc2c(C(F)(F)F)cccc12 (single isomer, unassigned) | 7500 nM
2 | O[C@H](CNCCN1CCN(C(c2ccccc2)c2ccccc2)CC1)c1cc(C(F)(F)F)nc2c(C(F)(F)F)cccc12 | 10800 nM
3 | O[C@@H](CNCCNC(c1ccccc1)c1ccccc1)c1cc(C(F)(F)F)nc2c(C(F)(F)F)cccc12 | 5000 nM
4 | COC[C@H](Cc1ccccc1)NC[C@H](O)c1cc(C(F)(F)F)nc2c(C(F)(F)F)cccc12 | 16900 nM

Tested on: not listed separately
Test: Selectivity index, ratio of IC50 for cytotoxicity against human HepG2 cells to IC50 for antiplasmodial activity against Plasmodium falciparum 3D7 infected in human erythrocytes by HRP2-ELISA
Format: toxicity, cell-based
Conditions: read-out: Ratio IC50

Row | SMILES | selectivity ratio
5 | OC[C@@H](Cc1ccccc1)NC[C@@H](O)c1cc(C(F)(F)F)nc2c(C(F)(F)F)cccc12 (single isomer, unassigned) | 151
6 | O[C@H](CNCCN1CCN(C(c2ccccc2)c2ccccc2)CC1)c1cc(C(F)(F)F)nc2c(C(F)(F)F)cccc12 | 60
7 | O[C@@H](CNCCNC(c1ccccc1)c1ccccc1)c1cc(C(F)(F)F)nc2c(C(F)(F)F)cccc12 | 177
8 | COC[C@H](Cc1ccccc1)NC[C@H](O)c1cc(C(F)(F)F)nc2c(C(F)(F)F)cccc12 | 414

Tested on: not listed separately
Test: Cytotoxicity against Chinese hamster CHO cells assessed as reduction in cell viability incubated for 24 hrs by MTT assay
Format: toxicity, cell-based, Cricetulus griseus
Conditions: not given

Row | SMILES | IC50 at 24 h
9 | OC[C@@H](Cc1ccccc1)NC[C@@H](O)c1cc(C(F)(F)F)nc2c(C(F)(F)F)cccc12 (single isomer, unassigned) | 35800 nM
10 | O[C@H](CNCCN1CCN(C(c2ccccc2)c2ccccc2)CC1)c1cc(C(F)(F)F)nc2c(C(F)(F)F)cccc12 | 24800 nM
11 | O[C@@H](CNCCNC(c1ccccc1)c1ccccc1)c1cc(C(F)(F)F)nc2c(C(F)(F)F)cccc12 | 11600 nM
12 | COC[C@H](Cc1ccccc1)NC[C@H](O)c1cc(C(F)(F)F)nc2c(C(F)(F)F)cccc12 | 37600 nM

Tested on: Plasmodium falciparum
Test: Antiplasmodial activity against CQ-susceptible Plasmodium falciparum 3D7 assessed as inhibition of parasite growth measured after 48 hrs by SYBR Green 1 dye based fluorescence assay
Format: functional, organism-based
Conditions: 3D7, 48 h

Row | SMILES | IC50
13 | OC[C@@H](Cc1ccccc1)NC[C@@H](O)c1cc(C(F)(F)F)nc2c(C(F)(F)F)cccc12 (single isomer, unassigned) | 35.6 nM
14 | O[C@H](CNCCN1CCN(C(c2ccccc2)c2ccccc2)CC1)c1cc(C(F)(F)F)nc2c(C(F)(F)F)cccc12 | 75.7 nM
15 | O[C@@H](CNCCNC(c1ccccc1)c1ccccc1)c1cc(C(F)(F)F)nc2c(C(F)(F)F)cccc12 | 35.8 nM
16 | COC[C@H](Cc1ccccc1)NC[C@H](O)c1cc(C(F)(F)F)nc2c(C(F)(F)F)cccc12 | 17.4 nM

Tested on: not listed separately
Test: Selectivity index, ratio of IC50 for cytotoxicity against human THP-1 cells to IC50 for antiplasmodial activity against Plasmodium falciparum 3D7 infected in human erythrocytes by HRP2-ELISA
Format: toxicity, cell-based
Conditions: read-out: Ratio IC50

Row | SMILES | selectivity ratio
17 | OC[C@@H](Cc1ccccc1)NC[C@@H](O)c1cc(C(F)(F)F)nc2c(C(F)(F)F)cccc12 (single isomer, unassigned) | 73
18 | O[C@H](CNCCN1CCN(C(c2ccccc2)c2ccccc2)CC1)c1cc(C(F)(F)F)nc2c(C(F)(F)F)cccc12 | 93
19 | O[C@@H](CNCCNC(c1ccccc1)c1ccccc1)c1cc(C(F)(F)F)nc2c(C(F)(F)F)cccc12 | 100
20 | COC[C@H](Cc1ccccc1)NC[C@H](O)c1cc(C(F)(F)F)nc2c(C(F)(F)F)cccc12 | 728

Tested on: not listed separately
Test: Selectivity index, ratio of IC50 for human HFF cells to IC50 for antiplasmodial activity against Plasmodium falciparum 3D7 infected in human erythrocytes by HRP2-ELISA
Format: toxicity, cell-based
Conditions: read-out: Ratio IC50

Row | SMILES | selectivity ratio
21 | OC[C@@H](Cc1ccccc1)NC[C@@H](O)c1cc(C(F)(F)F)nc2c(C(F)(F)F)cccc12 (single isomer, unassigned) | 444
22 | O[C@H](CNCCN1CCN(C(c2ccccc2)c2ccccc2)CC1)c1cc(C(F)(F)F)nc2c(C(F)(F)F)cccc12 | 114
23 | O[C@@H](CNCCNC(c1ccccc1)c1ccccc1)c1cc(C(F)(F)F)nc2c(C(F)(F)F)cccc12 | 881
24 | COC[C@H](Cc1ccccc1)NC[C@H](O)c1cc(C(F)(F)F)nc2c(C(F)(F)F)cccc12 | 1580

Tested on: not listed separately
Test: Cytotoxicity against human HFF cells assessed as reduction in cell viability incubated for 72 hrs by MTT assay
Format: toxicity, cell-based
Conditions: not given

Row | SMILES | IC50 at 72 h
25 | OC[C@@H](Cc1ccccc1)NC[C@@H](O)c1cc(C(F)(F)F)nc2c(C(F)(F)F)cccc12 (single isomer, unassigned) | 45400 nM
26 | O[C@H](CNCCN1CCN(C(c2ccccc2)c2ccccc2)CC1)c1cc(C(F)(F)F)nc2c(C(F)(F)F)cccc12 | 13300 nM
27 | O[C@@H](CNCCNC(c1ccccc1)c1ccccc1)c1cc(C(F)(F)F)nc2c(C(F)(F)F)cccc12 | 43900 nM
28 | COC[C@H](Cc1ccccc1)NC[C@H](O)c1cc(C(F)(F)F)nc2c(C(F)(F)F)cccc12 | 36700 nM

Tested on: Plasmodium falciparum
Test: Antiplasmodial activity against CQ-resistant Plasmodium falciparum W2 assessed as inhibition of parasite growth measured after 48 hrs by SYBR Green 1 dye based fluorescence assay
Format: functional, organism-based
Conditions: W2, 48 h

Row | SMILES | IC50
29 | OC[C@@H](Cc1ccccc1)NC[C@@H](O)c1cc(C(F)(F)F)nc2c(C(F)(F)F)cccc12 (single isomer, unassigned) | 10.3 nM
30 | O[C@H](CNCCN1CCN(C(c2ccccc2)c2ccccc2)CC1)c1cc(C(F)(F)F)nc2c(C(F)(F)F)cccc12 | 63 nM
31 | O[C@@H](CNCCNC(c1ccccc1)c1ccccc1)c1cc(C(F)(F)F)nc2c(C(F)(F)F)cccc12 | 34 nM
32 | COC[C@H](Cc1ccccc1)NC[C@H](O)c1cc(C(F)(F)F)nc2c(C(F)(F)F)cccc12 | 11.4 nM

Tested on: Plasmodium falciparum
Test: Antiplasmodial activity CQ-resistant Plasmodium falciparum W2 infected in human erythrocytes assessed as inhibition of parasite growth measured after 72 hrs by HRP2-ELISA
Format: functional, organism-based
Conditions: W2, Erythrocyte

Row | SMILES | IC50
33 | OC[C@@H](Cc1ccccc1)NC[C@@H](O)c1cc(C(F)(F)F)nc2c(C(F)(F)F)cccc12 (single isomer, unassigned) | 82.7 nM
34 | O[C@H](CNCCN1CCN(C(c2ccccc2)c2ccccc2)CC1)c1cc(C(F)(F)F)nc2c(C(F)(F)F)cccc12 | 89.3 nM
35 | O[C@@H](CNCCNC(c1ccccc1)c1ccccc1)c1cc(C(F)(F)F)nc2c(C(F)(F)F)cccc12 | 20.7 nM
36 | COC[C@H](Cc1ccccc1)NC[C@H](O)c1cc(C(F)(F)F)nc2c(C(F)(F)F)cccc12 | 15.4 nM

Tested on: not listed separately
Test: Cytotoxicity against human HepG2 cells assessed as reduction in cell viability incubated for 72 hrs by MTT assay
Format: toxicity, cell-based
Conditions: not given

Row | SMILES | IC50 at 72 h
37 | OC[C@@H](Cc1ccccc1)NC[C@@H](O)c1cc(C(F)(F)F)nc2c(C(F)(F)F)cccc12 (single isomer, unassigned) | 15400 nM
38 | O[C@H](CNCCN1CCN(C(c2ccccc2)c2ccccc2)CC1)c1cc(C(F)(F)F)nc2c(C(F)(F)F)cccc12 | 7000 nM
39 | O[C@@H](CNCCNC(c1ccccc1)c1ccccc1)c1cc(C(F)(F)F)nc2c(C(F)(F)F)cccc12 | 8800 nM
40 | COC[C@H](Cc1ccccc1)NC[C@H](O)c1cc(C(F)(F)F)nc2c(C(F)(F)F)cccc12 | 9600 nM

Tested on: not listed separately
Test: Selectivity index, ratio of IC50 for cytotoxicity against chinese hamster CHO cells to IC50 for antiplasmodial activity against Plasmodium falciparum 3D7 infected in human erythrocytes by HRP2-ELISA
Format: toxicity, cell-based
Conditions: read-out: Ratio IC50

Row | SMILES | selectivity ratio
41 | OC[C@@H](Cc1ccccc1)NC[C@@H](O)c1cc(C(F)(F)F)nc2c(C(F)(F)F)cccc12 (single isomer, unassigned) | 345
42 | O[C@H](CNCCN1CCN(C(c2ccccc2)c2ccccc2)CC1)c1cc(C(F)(F)F)nc2c(C(F)(F)F)cccc12 | 213
43 | O[C@@H](CNCCNC(c1ccccc1)c1ccccc1)c1cc(C(F)(F)F)nc2c(C(F)(F)F)cccc12 | 233
44 | COC[C@H](Cc1ccccc1)NC[C@H](O)c1cc(C(F)(F)F)nc2c(C(F)(F)F)cccc12 | 1620

Tested on: Plasmodium falciparum
Test: Selectivity index, ratio of IC50 for antiplasmodial activity against CQ-susceptible Plasmodium falciparum 3D7 to IC50 for antiplasmodial activity CQ-resistant Plasmodium falciparum W2 by HRP2-ELISA
Format: functional
Conditions: not given

Row | SMILES | Ratio IC50
45 | OC[C@@H](Cc1ccccc1)NC[C@@H](O)c1cc(C(F)(F)F)nc2c(C(F)(F)F)cccc12 (single isomer, unassigned) | 1.2
46 | O[C@H](CNCCN1CCN(C(c2ccccc2)c2ccccc2)CC1)c1cc(C(F)(F)F)nc2c(C(F)(F)F)cccc12 | 1.3
47 | O[C@@H](CNCCNC(c1ccccc1)c1ccccc1)c1cc(C(F)(F)F)nc2c(C(F)(F)F)cccc12 | 2.4
48 | COC[C@H](Cc1ccccc1)NC[C@H](O)c1cc(C(F)(F)F)nc2c(C(F)(F)F)cccc12 | 1.5

Tested on: Plasmodium falciparum
Test: Selectivity index, ratio of IC50 for antiplasmodial activity against CQ-susceptible Plasmodium falciparum 3D7 to IC50 for antiplasmodial activity against CQ-resistant Plasmodium falciparum W2 by SYBR Green 1 dye based fluorescence assay
Format: functional
Conditions: not given

Row | SMILES | Ratio IC50
49 | OC[C@@H](Cc1ccccc1)NC[C@@H](O)c1cc(C(F)(F)F)nc2c(C(F)(F)F)cccc12 (single isomer, unassigned) | 3.5
50 | O[C@H](CNCCN1CCN(C(c2ccccc2)c2ccccc2)CC1)c1cc(C(F)(F)F)nc2c(C(F)(F)F)cccc12 | 1.2
51 | O[C@@H](CNCCNC(c1ccccc1)c1ccccc1)c1cc(C(F)(F)F)nc2c(C(F)(F)F)cccc12 | 1.05
52 | COC[C@H](Cc1ccccc1)NC[C@H](O)c1cc(C(F)(F)F)nc2c(C(F)(F)F)cccc12 | 1.5

Tested on: Plasmodium falciparum
Test: Antiplasmodial activity against CQ-susceptible Plasmodium falciparum 3D7 infected in human erythrocytes assessed as inhibition of parasite growth measured after 72 hrs by HRP2-ELISA
Format: functional, organism-based
Conditions: 3D7, Erythrocyte

Row | SMILES | IC50
53 | OC[C@@H](Cc1ccccc1)NC[C@@H](O)c1cc(C(F)(F)F)nc2c(C(F)(F)F)cccc12 (single isomer, unassigned) | 102 nM
54 | O[C@H](CNCCN1CCN(C(c2ccccc2)c2ccccc2)CC1)c1cc(C(F)(F)F)nc2c(C(F)(F)F)cccc12 | 116 nM
55 | O[C@@H](CNCCNC(c1ccccc1)c1ccccc1)c1cc(C(F)(F)F)nc2c(C(F)(F)F)cccc12 | 49.8 nM
56 | COC[C@H](Cc1ccccc1)NC[C@H](O)c1cc(C(F)(F)F)nc2c(C(F)(F)F)cccc12 | 23.2 nM
